Data from PubChem BioAssay (NCI).
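Growth conditions: 96-well plates. Treatment: test compound, 48 hours, 5 concentrations. Analysis: linear interpolation between bracketing concentrations; unreached endpoints set to highest concentration. GI50 = concentration required for 50% inhibition of growth. TGI: total growth inhibition.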

Columns and labels:
Experiment in all cases: inhibition of tumour cell growth, NCI panel, 48 h
DMS 273 small cell lung = system: DMS 273 small cell lung
HOP-92 NSCLC = system: HOP-92 NSCLC
LXFL 529 NSCLC = system: LXFL 529 NSCLC
SF-268 CNS = system: SF-268 CNS
U251 CNS = system: U251 CNS
UACC-62 melanoma = system: UACC-62 melanoma
SR leukemia = system: SR leukemia
BT-549 breast = system: BT-549 breast
DU-145 prostate = system: DU-145 prostate
HS 578T breast = system: HS 578T breast

SMILES | TGI (DMS 273 small cell lung) [µM] | TGI (HOP-92 NSCLC) [µM] | TGI (LXFL 529 NSCLC) [µM] | TGI (SF-268 CNS) [µM] | TGI (U251 CNS) [µM] | TGI (UACC-62 melanoma) [µM] | GI50 (DMS 273 small cell lung) [µM] | GI50 (HOP-92 NSCLC) [µM] | GI50 (LXFL 529 NSCLC) [µM] | GI50 (SF-268 CNS) [µM] | GI50 (SR leukemia) [µM] | TGI (SR leukemia) [µM] | GI50 (U251 CNS) [µM] | GI50 (UACC-62 melanoma) [µM] | TGI (BT-549 breast) [µM] | TGI (DU-145 prostate) [µM] | TGI (HS 578T breast) [µM] | GI50 (BT-549 breast) [µM] | GI50 (DU-145 prostate) [µM] | GI50 (HS 578T breast) [µM]
Cc1cc(C)nc(NS(=O)(=O)c2ccc(NC(=O)c3ccc(Cl)c4c(Nc5ccc(S(=O)(=O)N=C(N)N)cc5)c5ccccc5nc34)cc2)n1 | > 100 | 67.7 | > 100 | > 100 | > 100 | > 100 | – | – | – | – | – | – | – | – | – | – | – | – | – | –
CN(C)CCC1(C2=CCCC2)CC/C(=C\c2ccccc2Cl)C1=O (stereo unspecified) | – | 26.3 | 23.9 | 28.7 | 25.5 | 29.8 | – | – | – | – | – | – | – | – | – | – | – | – | – | –
CCC[CH2][Sn]([CH2]CCC)([O]C(=O)c1cc(F)cc(F)c1)[O][Sn]([CH2]CCC)([CH2]CCC)[O]C(=O)c1cc(F)cc(F)c1 | 2.47 | 2.52 | 0.612 | 2.19 | 2.28 | 2.7 | 1.23 | 1.25 | 0.152 | 0.91 | 0.372 | 4.32 | 1.08 | 1.4 | – | – | – | – | – | –
COc1ccc(NC(=O)CCc2cc(C(C)(C)C)n[nH]2)cc1 | > 100 | > 100 | > 100 | > 100 | > 100 | > 100 | – | – | – | – | – | > 100 | – | – | – | – | – | – | – | –
C/C(CCn1[nH]c(=O)ccc1=O)=N\Nc1ccc([N+](=O)[O-])cc1[N+](=O)[O-] | > 100 | > 100 | > 100 | > 100 | – | > 100 | – | – | – | – | – | > 100 | – | – | – | – | – | – | – | –
CCOC(=O)c1c2cccccc2n2c(=O)cc(C)nc12 | > 100 | – | > 100 | > 100 | > 100 | > 100 | – | – | – | – | – | > 100 | – | – | – | – | – | – | – | –
O=C(O)CCSC(=O)Nc1ccccc1Cl | > 100 | > 100 | > 100 | > 100 | > 100 | > 100 | – | – | – | – | – | > 100 | – | – | – | – | – | – | – | –
O=C(O)CCSC(=S)Nc1cccc(F)c1 | > 100 | 98.9 | > 100 | > 100 | > 100 | 29.5 | – | – | – | – | – | > 100 | – | – | – | – | – | – | – | –
CN(O)C(=S)c1ccccc1 | 4.03 | > 100 | > 23 | > 100 | > 100 | 6.21 | – | – | – | – | – | – | – | – | > 100 | > 100 | > 100 | – | – | –
C=C1CCC2C3(C)COC(c4ccc(Cl)cc4)OC3CCC2(C)C1/C=C/C1=CCOC1=O (stereo unspecified) | – | 39.1 | – | > 100 | 46.2 | > 100 | – | 9.96 | – | 19.9 | 1.37 | > 100 | 5.68 | 4 | 80.5 | > 100 | 42.5 | 4.79 | 24 | 11.5
C=C1NC(=O)C(CC(C(=O)C(=O)Nc2c(C)cccc2C(C)(C)C)C(=O)c2ccc3ccccc3c2)C(=O)N1 (stereo unspecified) | – | > 100 | – | > 100 | > 100 | > 100 | – | – | – | – | – | > 100 | – | – | > 100 | > 100 | > 100 | – | – | –
